Measured values: PubChem BioAssay (NCI)
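These data come from cells grown in 96-well plates and exposed to compound for 48 hours at five concentrations. The concentration for 50% growth inhibition is given as GI50. The concentration for full growth arrest is given as TGI.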

Assays:
Assay in all cases: NCI anticancer screen, dose series, 48 h
HOP-62 NSCLC = test system: HOP-62 NSCLC
UACC-62 melanoma = test system: UACC-62 melanoma
OVCAR-5 ovarian = test system: OVCAR-5 ovarian
A498 renal = test system: A498 renal
IGROV1 ovarian = test system: IGROV1 ovarian
LOX IMVI melanoma = test system: LOX IMVI melanoma
HCT-15 colon = test system: HCT-15 colon
SR leukemia = test system: SR leukemia
OVCAR-4 ovarian = test system: OVCAR-4 ovarian
NCI/ADR-RES ovarian = test system: NCI/ADR-RES ovarian
NCI-H226 lung = test system: NCI-H226 lung
OVCAR-3 ovarian = test system: OVCAR-3 ovarian
TK-10 renal = test system: TK-10 renal
UO-31 renal = test system: UO-31 renal
SF-295 CNS = test system: SF-295 CNS
K-562 leukemia = test system: K-562 leukemia
MCF7 breast = test system: MCF7 breast
SK-MEL-5 melanoma = test system: SK-MEL-5 melanoma
786-0 renal = test system: 786-0 renal
EKVX NSCLC = test system: EKVX NSCLC
NCI-H522 lung = test system: NCI-H522 lung
DU-145 prostate = test system: DU-145 prostate
MDA-MB-231 breast = test system: MDA-MB-231 breast
HOP-92 NSCLC = test system: HOP-92 NSCLC
SNB-19 CNS = test system: SNB-19 CNS
HL-60(TB) leukemia = test system: HL-60(TB) leukemia
U251 CNS = test system: U251 CNS
COLO 205 colon = test system: COLO 205 colon
SF-268 CNS = test system: SF-268 CNS
HS 578T breast = test system: HS 578T breast
SK-MEL-2 melanoma = test system: SK-MEL-2 melanoma
A549 NSCLC = test system: A549 NSCLC
NCI-H23 lung = test system: NCI-H23 lung
SW-620 colon = test system: SW-620 colon
BT-549 breast = test system: BT-549 breast
MALME-3M melanoma = test system: MALME-3M melanoma
M14 melanoma = test system: M14 melanoma
RXF 393 renal = test system: RXF 393 renal
OVCAR-8 ovarian = test system: OVCAR-8 ovarian
RPMI-8226 leukemia = test system: RPMI-8226 leukemia
HT29 colon = test system: HT29 colon
HCC-2998 colon = test system: HCC-2998 colon
T-47D breast = test system: T-47D breast
CCRF-CEM leukemia = test system: CCRF-CEM leukemia
PC-3 prostate = test system: PC-3 prostate
SN12C renal = test system: SN12C renal
HCT-116 colon = test system: HCT-116 colon
SK-OV-3 ovarian = test system: SK-OV-3 ovarian
CAKI-1 renal = test system: CAKI-1 renal
MOLT-4 leukemia = test system: MOLT-4 leukemia
KM12 colon = test system: KM12 colon
SK-MEL-28 melanoma = test system: SK-MEL-28 melanoma
SF-539 CNS = test system: SF-539 CNS
UACC-257 melanoma = test system: UACC-257 melanoma
NCI-H460 lung = test system: NCI-H460 lung

## O=C(O)CCCn1c(SCc2c(Cl)cccc2Cl)nc2ccsc2c1=O
HOP-62 NSCLC
  GI50: 819 nM
  TGI: > 100000 nM
UACC-62 melanoma
  GI50: 185 nM
  TGI: 34200 nM
OVCAR-5 ovarian
  GI50: 5740 nM
  TGI: > 100000 nM
A498 renal
  GI50: 311 nM
  TGI: > 100000 nM
IGROV1 ovarian
  GI50: 1350 nM
  TGI: > 100000 nM
LOX IMVI melanoma
  GI50: 509 nM
  TGI: > 100000 nM
HCT-15 colon
  GI50: 321 nM
  TGI: > 100000 nM
SR leukemia
  GI50: 316 nM
  TGI: > 100000 nM
OVCAR-4 ovarian
  GI50: 7990 nM
  TGI: > 100000 nM
NCI/ADR-RES ovarian
  GI50: 276 nM
  TGI: > 100000 nM
NCI-H226 lung
  GI50: 685 nM
  TGI: > 100000 nM
OVCAR-3 ovarian
  GI50: 206 nM
  TGI: 1620 nM
TK-10 renal
  GI50: 26200 nM
  TGI: > 100000 nM
UO-31 renal
  GI50: 478 nM
  TGI: > 100000 nM
SF-295 CNS
  GI50: 376 nM
  TGI: > 100000 nM
K-562 leukemia
  GI50: 272 nM
  TGI: > 100000 nM
MCF7 breast
  GI50: 263 nM
  TGI: > 100000 nM
SK-MEL-5 melanoma
  GI50: 283 nM
  TGI: 57300 nM
786-0 renal
  GI50: 399 nM
  TGI: 32900 nM
EKVX NSCLC
  GI50: 4520 nM
  TGI: > 100000 nM
NCI-H522 lung
  GI50: 205 nM
  TGI: 32200 nM
DU-145 prostate
  GI50: 479 nM
  TGI: > 100000 nM
MDA-MB-231 breast
  GI50: 774 nM
  TGI: 50900 nM
HOP-92 NSCLC
  GI50: 236 nM
  TGI: > 100000 nM
SNB-19 CNS
  GI50: 517 nM
  TGI: > 100000 nM
HL-60(TB) leukemia
  GI50: 284 nM
  TGI: 12000 nM
U251 CNS
  GI50: 529 nM
  TGI: > 100000 nM
COLO 205 colon
  GI50: 384 nM
  TGI: 10800 nM
SF-268 CNS
  GI50: 830 nM
  TGI: > 100000 nM
HS 578T breast
  GI50: 434 nM
  TGI: > 100000 nM
SK-MEL-2 melanoma
  GI50: 386 nM
  TGI: > 100000 nM
A549 NSCLC
  GI50: 715 nM
  TGI: > 100000 nM
NCI-H23 lung
  GI50: 587 nM
  TGI: > 100000 nM
SW-620 colon
  GI50: 407 nM
  TGI: > 100000 nM
BT-549 breast
  GI50: 459 nM
  TGI: > 100000 nM
MALME-3M melanoma
  GI50: 336 nM
  TGI: > 100000 nM
M14 melanoma
  GI50: 366 nM
  TGI: > 100000 nM
RXF 393 renal
  GI50: 306 nM
  TGI: 2780 nM
OVCAR-8 ovarian
  GI50: 828 nM
  TGI: > 100000 nM
RPMI-8226 leukemia
  GI50: 489 nM
  TGI: > 100000 nM
HT29 colon
  GI50: 448 nM
  TGI: > 100000 nM
HCC-2998 colon
  GI50: 1850 nM
  TGI: 23200 nM
T-47D breast
  GI50: 482 nM
  TGI: > 100000 nM
CCRF-CEM leukemia
  GI50: 377 nM
  TGI: > 100000 nM
PC-3 prostate
  GI50: 354 nM
  TGI: > 100000 nM
SN12C renal
  GI50: 661 nM
  TGI: > 100000 nM
HCT-116 colon
  GI50: 432 nM
  TGI: > 100000 nM
SK-OV-3 ovarian
  GI50: 710 nM
  TGI: > 100000 nM
CAKI-1 renal
  GI50: 452 nM
  TGI: > 100000 nM
MOLT-4 leukemia
  GI50: 440 nM
  TGI: > 100000 nM
KM12 colon
  GI50: 321 nM
  TGI: > 100000 nM
SK-MEL-28 melanoma
  GI50: 698 nM
  TGI: > 100000 nM
SF-539 CNS
  GI50: 260 nM
  TGI: 943 nM
UACC-257 melanoma
  GI50: 58700 nM
  TGI: > 100000 nM
NCI-H460 lung
  GI50: 419 nM
  TGI: > 100000 nM
